Each structure is given as a SMILES string.

The test system of this test is Plasmodium falciparum. The experiment in a line: Antimicrobial activity against Plasmodium falciparum. Format: functional, organism-based.
As usually defined, the IC50 is the concentration that gives 50% inhibition. Read a high IC50 as weaker potency. Take `O=C1Nc2ccccc2/C1=C\c1ccc(O)cc1`: half-maximal inhibition (IC50) required 42 µM. The same measure for `CC1C2c3ccccc3C(c3ccccc32)C1C(=O)Nc1ccccn1` (centres undefined): 214 µM. The same measure for `O=C(NCc1ccccc1)C1=CC2c3ccccc3C1c1ccccc12`: 52 µM; for `CC1C2c3ccccc3C(c3ccccc32)C1C[N+](C)(C)C` (centres undefined): 17 µM; for `CN(C)CC1C2c3ccccc3C(c3ccccc32)C1CO` (centres undefined): 35 µM. In the case of `CC1C2c3ccccc3C(c3ccccc32)C1C(=O)Nc1ccncc1` (centres undefined), it took 500 µM to reach half-maximal inhibition (IC50). The same measure for `CC1C2c3ccccc3C(c3ccccc32)C1C(=O)/N=C/N(C)C` (centres undefined): 49 µM; for `Cn1c2nc3ccccc3c-2cc2c(Br)cccc21`: 32 µM. The result for `CCc1nc(N)nc(N)c1Cc1ccc(OCc2ccccc2)c(OC)c1` reads 5 µM. The same measure for `Cn1c2nc3ccccc3c-2cc2cc(F)ccc21`: 5 µM; for `COc1cc(Cc2c(C)nc(N)nc2N)ccc1OCc1ccccc1`: 3 µM. In turn, `CC(=O)/C=C1\C(=O)Nc2ccccc21` had an IC50 of 37 µM. The same measure for `CC(C)(C)C(=O)/C=C1\C(=O)Nc2ccccc21`: 44 µM. With `N#C/C(C(N)=O)=C1/C(=O)Nc2ccccc21`, half-maximal inhibition (IC50) was put at 24 µM. For `CC[C@H]1CN2CCc3c([nH]c4ccc(O)cc34)[C@@H]2C[C@@H]1C[C@H]1c2[nH]c3ccccc3c2CCN1C`, the IC50 was determined as 1 µM. This IC50 lies about 24-fold lower than the previous one. The same measure for `C=C[C@H]1CN2CCc3c([nH]c4ccc(O)cc34)[C@@H]2C[C@@H]1C[C@H]1c2[nH]c3ccccc3c2CCN1C`: 2 µM. In the case of `CC[C@H]1CN2CCc3c([nH]c4cc(O)ccc34)[C@@H]2C[C@@H]1C[C@H]1c2[nH]c3ccccc3c2CCN1C`, the IC50 was determined as 5 µM.

Molecule `CC1C2c3ccccc3C(c3ccccc32)C1C(=O)/N=N/N(C)C` (centres undefined) came in with an IC50 of 51 µM. The result for `CC1C2c3ccccc3C(c3ccccc32)C1CN` (centres undefined) reads 30 µM.

As for `CN(C)/N=N\C(=O)C1C2c3ccccc3C(c3ccccc32)C1C(=O)/N=N/N(C)C` (centres undefined), inhibition was half-maximal at 33 µM (IC50). The same measure for `Cc1nc2cnncc2n1-c1ccc(Cl)cc1C(=O)c1ccccc1Cl`: 1 µM. The result for `CCOC(=O)C1C2c3ccccc3C(c3ccccc32)C1C(=O)N(C)C` (centres undefined) reads 33 µM; that for `CN(C)C(=O)C1C2c3ccccc3C(c3ccccc32)C1C(=O)O` (centres undefined), 36 µM; that for `O=C(O)C1C2c3ccccc3C(c3ccccc32)C1CBr` (centres undefined), 40 µM. The same measure for `CN(C)/C=N\C(=O)C1C2c3ccccc3C(c3ccccc32)C1C(=O)/N=C\N(C)C` (centres undefined): 34 µM. `NC(=O)C1=CC2c3ccccc3C1c1ccccc12`: the IC50 was found to be 35 µM. The same measure for `CN(C)C(=O)C1=CC2c3ccccc3C1c1ccccc12`: 32 µM; for `CC(=O)C1C(=O)Nc2ccccc21` (centres undefined): 29 µM.

Take `Cc1c(O)noc1-c1ccccc1`: the half-inhibitory concentration (IC50) stood at 29 µM. This lies in the double-digit micromolar range.

Molecule `CCCCCCCCCCCOCCOCCOCCOCCOCCO` returned a 50% inhibitory concentration (IC50) of 68 µM. The result for `CCCCCCCCCC[N+](C)(C)CCCS(=O)(=O)[O-]` reads 782 µM; that for `CCCCCCCCCCCCCCCC[N+](C)(C)CCCS(=O)(=O)[O-]`, 65 µM. In turn, `CCCCCCCCCCO[C@@H]1O[C@H](CO)[C@@H](O)[C@H](O)[C@H]1O` came in with an IC50 of 233 µM. Compared with the last molecule, the IC50 is about 3.6-fold higher. The result for `O=C1Nc2ccccc2/C1=C/C(=O)c1ccc(Br)cc1` reads 4 µM; that for `O=C1Nc2ccccc2/C1=C/C(=O)c1ccc(F)cc1`, 1 µM; that for `O=C1NC(=S)S/C1=C1\C(=O)Nc2ccccc21`, 17 µM. The result for `O=C1NC(=O)/C(=C2/C(=O)Nc3ccccc32)S1` reads 19 µM; that for `O=C1Nc2ccccc2/C1=C\c1ccc(Cl)cc1`, 37 µM; that for `C/N=C/c1c(O)[nH]c2ccccc12`, 57 µM. The result for `CC1(C)CCc2c(c3ccccc3c3nc4ccccc4nc23)O1` reads 20 µM; that for `C=CCC1Cc2c(c3ccccc3c3nc4ccccc4nc23)OC1(C)C` (centres undefined), 20 µM; that for `CC1(C)Oc2c(c3nc4ccccc4nc3c3ccccc23)CC1I` (centres undefined), 2 µM.

`NC1=NC(c2cccc(Oc3ccc(Cl)cc3)c2)N(c2cccc(Cl)c2)C(N)=N1` (centres undefined): inhibition was half-maximal at 4 µM (IC50). The same measure for `NC1=NC(c2cccc(OCCCOc3cc(Cl)c(Cl)cc3Cl)c2)N(c2cccc(Cl)c2)C(N)=N1` (centres undefined): 9 µM. The result for `CCCCCCC1(C)N=C(N)N=C(N)N1c1cccc(Cl)c1` (centres undefined) reads 3 µM. Turning to `NC1=NC(c2ccc(Oc3ccccc3)cc2)N(c2ccc(Cl)cc2)C(N)=N1` (centres undefined), inhibition was half-maximal at 7 µM (IC50). Against the preceding molecule, the IC50 is about 2.3-fold higher.

Turning to `NC1=NC(c2cccc(Oc3ccccc3)c2)N(c2cccc(Cl)c2)C(N)=N1` (centres undefined), 4 µM corresponded to half-maximal inhibition (IC50). Against the preceding molecule, the IC50 is about 1.8-fold lower.

`NC1=NC(c2ccc(Oc3ccccc3)cc2)N(c2cccc(Cl)c2)C(N)=N1` (centres undefined) came in with an IC50 of 3 µM. This IC50 and that of the molecule before are within 1.5-fold of each other.

On to `NC1=NC(c2cccc(Oc3cc(Cl)cc(Cl)c3)c2)N(c2cccc(Cl)c2)C(N)=N1` (centres undefined), for which the IC50 stood at 6 µM. The same measure for `CCN(CC)Cc1cc(Nc2ccnc3cc(Cl)ccc23)ccc1O`: 15 µM; for `O=C1Nc2ccccc2/C1=C/C(=O)c1ccccc1`: 4 µM. `CCN(CC)CCCC(C)Nc1ccncc1` (centres undefined) came in with an IC50 of 92 µM.

Turning to `Nc1nc(N)c(-c2cccc(Cl)c2)c(CCCc2ccccc2)n1`, 6 µM corresponded to half-maximal inhibition (IC50).

Consider `CCc1nc(N)nc(N)c1Cc1ccc(OCc2ccccc2)c(OCc2ccccc2)c1`, for which the IC50 is 3 µM. The result for `CC1(C)Oc2c(c3nc4ccccc4nc3c3ccccc23)CC1S(=O)(=O)O` (centres undefined) reads 6 µM. The same measure for `CCc1nc(N)nc(N)c1-c1cccc(Cl)c1`: 9 µM; for `Cc1nc(N)nc(N)c1Cc1ccc(OCc2ccccc2)c(OCc2ccccc2)c1`: 3 µM. The result for `CC(C)=CCc1c(O)c2ccccc2c2nc3ccccc3nc12` reads 9 µM; that for `CCCCCCCCCCC(O)(P(=O)(O)O)P(=O)(O)O`, 200 µM.

On to `CCCCCC(O)(P(=O)(O)O)P(=O)(O)O`, for which 6 µM corresponded to half-maximal inhibition (IC50).

On to `CC(C)(C)c1cc(NC(P(=O)(O)O)P(=O)(O)O)cc(C(C)(C)C)c1`, for which it took 200 µM to reach half-maximal inhibition (IC50). Compared with the last molecule, the IC50 is about 33-fold higher.

`O=P(O)(O)C(Nc1cccnc1)P(=O)(O)O` registered an IC50 of 200 µM. The same measure for `CC1C2c3ccccc3C(c3ccccc32)C1C(N)=O` (centres undefined): 32 µM; for `CN(C)CC1=C(CN(C)C)C2c3ccccc3C1c1ccccc12`: 3 µM; for `CN(C)C1CC2c3ccccc3C1c1ccccc12` (centres undefined): 9 µM. The result for `CCOC(=O)C1C2c3ccccc3C(c3ccccc32)C1N(C)C` (centres undefined) reads 30 µM; that for `CC1C2c3ccccc3C(c3ccccc32)C1CN(C)C` (centres undefined), 21 µM. The result for `CN(C)C1C2c3ccccc3C(c3ccccc32)C1C(=O)O` (centres undefined) reads 50 µM. `NC1=NC(c2ccccc2)N(c2cccc(Cl)c2)C(N)=N1` (centres undefined) returned an IC50 of 1 µM. `CCN(CC)Cc1cc(Nc2ccnc3cc(Cl)ccc23)cc(-c2ccc(Cl)cc2)c1F` displayed an IC50 of 41 µM. This IC50 lies about 41-fold higher than the previous one. In turn, `O=C1Nc2ccccc2/C1=C\c1ccc(C(F)(F)F)cc1` showed an IC50 of 4 µM. The same measure for `O=C1Nc2ccccc2/C1=C\C1CCCCN1` (centres undefined): 21 µM. Consider `CCOC(=O)/C(C#N)=C1/C(=O)Nc2ccccc21`, for which the IC50 is 42 µM. In turn, `O=C1Nc2ccccc2/C1=C\c1c(Cl)cccc1Cl` yielded a half-maximal inhibitory concentration (IC50) of 17 µM. The same measure for `CCCOc1ccc(C2N=C(N)N=C(N)N2c2cccc(Cl)c2)cc1` (centres undefined): 3 µM; for `NC1=NC(c2cccc(Oc3cccc(C(F)(F)F)c3)c2)N(c2cccc(Cl)c2)C(N)=N1` (centres undefined): 3 µM. The result for `CN(C)c1ccc(Nc2c3ccccc3nc3ccccc23)cc1` reads 1 µM; that for `NC1=NC(c2cccc(Oc3ccc(Cl)cc3)c2)N(c2ccc(Cl)cc2)C(N)=N1` (centres undefined), 4 µM; that for `NC1=NC(c2cccc(OCc3ccccc3)c2)N(c2cccc(Cl)c2)C(N)=N1` (centres undefined), 8 µM. For `COc1ccc(Nc2c3ccc(N)cc3nc3cc(N)ccc23)cc1`, the IC50 stood at 1 µM. Against the preceding molecule, the IC50 is about 8-fold lower. The same measure for `CC[N+](CC)(CC)CCCCCCCC[N+](CC)(CC)CC`: 1 µM.

Take `O=C1Nc2ccc(Br)cc2/C1=C/C(=O)c1ccccc1`: the IC50 stood at 3 µM. The same measure for `CN(C)Cc1ccc(Nc2c3ccc(Cl)cc3nc3cc(Cl)ccc23)cc1`: 1 µM; for `NS(=O)(=O)c1ccc(Nc2c3ccc(Cl)cc3nc3cc(Cl)ccc23)cc1`: 7 µM. The same measure for `Cc1ccc(C(=O)/C=C2\C(=O)Nc3ccc(Br)cc32)cc1`: 3 µM; for `Oc1ccc(Nc2ccnc3cc(Cl)ccc23)cc1`: 19 µM; for `CS(=O)(=O)Nc1ccc(Nc2c3ccc(N)cc3nc3cc(N)ccc23)cc1`: 1 µM. The result for `CCCCCCCCCCCC(O)(P(=O)(O)O)P(=O)(O)O` reads 1 µM.

Consider `c1ccc(N2CCN(c3ccccc3)C2c2ccc(N3CCN(c4ccc(C5N(c6ccccc6)CCN5c5ccccc5)cc4)CC3)cc2)cc1`, for which the IC50 is 1 µM. This lies in the single-digit micromolar range.

As to `CC1C2c3ccccc3C(c3ccccc32)C1C(=O)Nc1cccnc1` (centres undefined), it took 79 µM to reach half-maximal inhibition (IC50). `O=P(O)(O)C(Nc1ccc(I)cn1)P(=O)(O)O` had an IC50 of 200 µM. `O=P(O)(O)C(NCCCc1ccccc1)P(=O)(O)O` registered a concentration for half-maximal inhibition (IC50) of 200 µM.

`CCCCOc1ccc(NC(P(=O)(O)O)P(=O)(O)O)cc1` had an IC50 of 200 µM. With `CNc1ccc(Nc2c3ccccc3nc3cc(Cl)ccc23)cc1`, the IC50 is 1 µM. `CCN(CC)Cc1cc(Nc2ccncc2)ccc1O` had an IC50 of 134 µM. The result for `CN(C)c1ccc(Nc2c3ccccc3nc3cc(Cl)ccc23)cc1` reads 1 µM; that for `Cc1cc(C)nc(NC(P(=O)(O)O)P(=O)(O)O)c1`, 200 µM; that for `CCCCCCCCCC(O)(P(=O)(O)O)P(=O)(O)O`, 1 µM. In the case of `CCCCCCC(CCCC)C(O)(P(=O)(O)O)P(=O)(O)O` (centres undefined), the IC50 worked out at 200 µM. The result for `CCCCCCC(O)(P(=O)(O)O)P(=O)(O)O` reads 4 µM; that for `Cc1cccc(NC(P(=O)(O)O)P(=O)(O)O)n1`, 200 µM. The same measure for `O=P(O)(O)C(Nc1ccc(Cl)nc1)P(=O)(O)O`: 200 µM; for `CO[C@H]1O[C@@H]2O[C@@]3(C)CC[C@H]4[C@H](C)CC[C@@H]([C@H]1C)[C@@]24OO3`: 1000 µM; for `c1cc(N2CCN(c3ccc(C4OCCO4)cc3)CC2)ccc1C1OCCO1`: 1 µM.

The record behind these values is ChEMBL document CHEMBL1212812, “Multi-target spectral moment QSAR versus ANN for antiparasitic drugs against different parasite species” (Bioorg Med Chem, 2010).
